Measurements as given in publication PMC10254233, “Synthesis and In Vitro Biological Evaluation of p-Carborane-Based Di-tert-butylphenol Analogs” (Molecules, 2023).

What was measured:
[1] = system: primary peritoneal exudate cells; test: Viability of primary peritoneal exudate cells, CV assay; assay type: cell-based; conditions: 72 h, cells from healthy mice
Protocol: All cells were kept at 37 °C in a humidified atmosphere with 5% CO2.
Primary peritoneal exudates cells (PEC) isolated from C57BL/6 mice were used to estimate the selec-
Mice were obtained from the animal facility at the Institute for Biological Research “Siniša Stanković” - National Institute of the Republic of Serbia, University of Belgrade (Belgrade, Serbia). PEC were cultivated in HEPES-buffered (HEPES = 4-
5% heat-inactivated fetal bovine serum (FBS) and antibiotics under standard growth conditions (37 °C, 5% CO2). For viability determination cells were seeded at a density of 2 x 10^5 cells/well in 96-well plates.
the indicated concentrations for 72 h. Cell viability was determined by the CV test. The data are presented as a mean ± SD from one repre-
sentative out of three independent experiments. *p<0.05 refer to untreated cultures.

HCT116 cells [2] = test: Cell proliferation assay (CFSE staining); assay type: cell-based, human; conditions: HCT116, IC50 dose, 72 h, compared to R-830
HCT116 cells [3] = test: Acridine orange (AO) staining for autophagy; assay type: cell-based, human; conditions: HCT116, IC50 dose, 72 h
Excerpt: (§1) Apostat staining confirmed that apoptosis was in correlation with the activation of caspases (Figure 3C). […] The […] production of reactive oxygen species explains the observed effects of the applied treatments, namely inhibition of proliferation and induction of apoptosis (Figure 3E). It is widely accepted that drug-mediated hyperproduction of reactive oxygen species that are not buffered by cellular anti-oxidative protection is responsible for cell death induction. […] The described feature is acquired during disease progression, and it is tightly connected with abnormal blood supply and a hypoxic microenvironment. Therefore, elimination of these molecules results in a rapid decrease in cell viability. […]
Non-adherent cells were removed two hours after seeding and treatment was applied. Cell viability was determined after 72 h using a crystal violet (CV) assay. […]
and R-830-Cb (50 μM) for 72 h. […] After 15 min incubation at room temperature (RT) protected from light the cells were resuspended in AnnV-binding buffer and analysed using flow cytom-etry. HCT116 cells were incubated with pan-caspase inhibitor Apostat for 30 min at 37 °C to determine whether detected apoptosis was mediated by caspase activation. […]

HCT116 cells [4] = test: Co-treatment with autophagy inhibitors, CV assay; assay type: cell-based, human; conditions: HCT116, 50 µM with 20 µM chloroquine or 1 mM 3-MA, 72 h
Excerpt: This means that the cytotoxic activity of the tested drug is enhanced by the inhibition of autophagy.
(G) HCT116 cells were co-treated with R-830-Cb and 3-methyladenine (3-MA) or chloroquine and viability was estimated by crystal violet (CV) assay. * p < 0.05; *** p < 0.001 in comparison to relevant control.
1.1.3. Measurement of reactive oxygen and nitrogen species (ROS/RNS) generation Dihydrorhodamine 123 (DHR) staining was used for detection of production of ROS/RNS species.
(§2) Finally, after 72 h incubation, cells were washed, tryp-sinized, and analyzed using flow cytometry (CyFlow® Space Partec using the PartecFloMax® software […]
1.1.4. PI staining on chamber slides […]
(§3) (30 µM) and R-830-Cb (50 µM)). […] Finally, for covering the slides fluorescent mounting medium was used and slides were ana-lyzed with Zeiss AxioObserver Z1 inverted fluorescence microscope (Carl Zeiss AG, Oberkochen, Ger-many) at 400 x magnification.
(§4) 1.1.5. Evaluation of the role of detected autophagy
(§5) Concomitant treatment of R-830-Cb and autophagy inhibitors chloroquine and 3-MA was performed to determine the nature of detected autophagy. […] Cell viability was evaluated using CV assay after 72 h. […]
Finally, after 72 h incubation, cells were tripsynized, washed, resuspended in PBS, and analyzed by flow cytometry (CyFlow® Space Partec using the PartecFloMax® software (Munster, Germany)).

HCT116 cells [5] = test: ROS/RNS generation, DHR 123 staining; assay type: cell-based, human; conditions: HCT116, IC50 dose, 72 h
Excerpt: as §1, §2, §3, §4, §5

Substance: 1-Hydroxy-12-(thiophen-2′-carbonyl)-1,12-dicarba-closo-dodecaborane(12) [Compound R-830-Cb]
- viability of primary peritoneal exudate cells [1]: completely non-toxic in the applied dose range
- cell division (CFSE) (HCT116 cells [2]): more severely affected
- autophagy (AO staining) (HCT116 cells [3]): intense autophagy
- cell viability on co-treatment with chloroquine or 3-MA (HCT116 cells [4]): suppression of the autophagy process caused a drug-induced decrease in cell viability
- reactive oxygen species production (HCT116 cells [5]): potent inhibition of ROS
